# Experiments:
# AhR = AhR (Homo sapiens (Human), UniProt P35869); assay: AhR antagonism in U937 cells (Promega P450-Glo assay); format: cell-based; conditions: inhibition of agonist (KYNA) response, CYP1A1 activity readout (Luciferin-CEE), 24 hrs, arithmetic mean of pIC50
# Experimental: Examples were tested in selected biological assays two or more times. Data are reported as the arithmetic mean of the pIC50 (−log10IC50) values, where IC50 is defined as the concentration of compound producing a 50% inhibition of the agonist (KYNA) response.
# In Vitro Assay 1: AhR Antagonism in U937 Cells (Promega P450-Glo™ Assay)
# AhR antagonism was assessed in U937 cells (myeloid lineage cell line derived from a human histiocytic lymphoma).). Ligand binds the AhR in the cytoplasm, and the AhR-ligand complex translocates to the nucleus and forms a heterodimer with AhR nuclear translocator (Arnt). This complex binds the xenobiotic response element (XRE) in the 5′ upstream region of the CYP1A1 promoter, enhancing CYP1A1 expression. CYP1A1 activity is subsequently determined by assessing the conversion of Luciferin-CEE to luciferin, which in turn reacts with luciferase to produce light. The amount of light produced is directly proportional to cytochrome P450 activity. U937 cells in Ultraculture serum free media (Lonza) were plated at 100,000 cells per well in a round bottom 96 well tissue culture plate. Seven concentrations of test compound (final [DMSO] 1%) were added and incubated for 10 minutes before the addition of […] KYNA. The plates were then placed in an incubator at 37° C., >85% humidity, 5% CO2 for 24 hrs. After aspiration of the supernatant the CYP1A1 substrate Luciferin-CEE ([Final] 83 μM) was added and incubated for 3 hrs before the reaction was stopped by adding luciferin detection reagent and luminescence was read after 20 minutes.
# CYP1A1 = CYP1A1 (Homo sapiens (Human), UniProt P04798); assay: CYP1A1 inhibition assay (Promega P450-Glo, Cypex bactosomes); format: biochemical; conditions: direct CYP1A1 inhibition, Luciferin-CEE 30 μM, NADPH, 37° C., arithmetic mean of pIC50
# Experimental: In Vitro Assay 22: […] Inhibition Assay
# The direct CYP1A1 inhibitory activity of test compounds was also assessed using the Promega P450-Glo™ assay system. Seven concentrations of test compound were added to a ½ area white 96 well plate. Cypex […]. bactosomes ([final] 0.5 pmol) and CYPA substrate Luciferin-CEE ([final] 30 μM) were prepared in 0.1M potassium phosphate buffer and incubated with test compounds at 37° C. for 5 minutes. 0.2m NADPH was then added to the plates and incubated at 37° C., for 10 minutes. The reaction was stopped by adding luciferin detection reagent and luminescence was read after 20 minutes.
# CYP1A1, sequence (P04798 whole entry): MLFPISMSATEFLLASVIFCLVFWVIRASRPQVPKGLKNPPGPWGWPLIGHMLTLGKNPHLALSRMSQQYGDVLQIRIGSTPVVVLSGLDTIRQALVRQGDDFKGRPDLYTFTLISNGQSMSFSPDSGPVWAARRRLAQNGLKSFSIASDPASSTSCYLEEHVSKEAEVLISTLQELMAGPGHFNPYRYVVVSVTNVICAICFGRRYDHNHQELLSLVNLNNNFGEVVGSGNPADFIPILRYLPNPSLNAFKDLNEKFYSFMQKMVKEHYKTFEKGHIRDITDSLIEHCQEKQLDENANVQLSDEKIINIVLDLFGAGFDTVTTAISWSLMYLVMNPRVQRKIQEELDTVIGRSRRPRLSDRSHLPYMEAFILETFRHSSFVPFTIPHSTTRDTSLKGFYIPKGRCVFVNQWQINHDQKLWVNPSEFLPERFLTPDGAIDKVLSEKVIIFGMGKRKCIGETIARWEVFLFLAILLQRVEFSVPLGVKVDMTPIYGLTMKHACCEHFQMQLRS
# AhR, sequence (P35869 11-848): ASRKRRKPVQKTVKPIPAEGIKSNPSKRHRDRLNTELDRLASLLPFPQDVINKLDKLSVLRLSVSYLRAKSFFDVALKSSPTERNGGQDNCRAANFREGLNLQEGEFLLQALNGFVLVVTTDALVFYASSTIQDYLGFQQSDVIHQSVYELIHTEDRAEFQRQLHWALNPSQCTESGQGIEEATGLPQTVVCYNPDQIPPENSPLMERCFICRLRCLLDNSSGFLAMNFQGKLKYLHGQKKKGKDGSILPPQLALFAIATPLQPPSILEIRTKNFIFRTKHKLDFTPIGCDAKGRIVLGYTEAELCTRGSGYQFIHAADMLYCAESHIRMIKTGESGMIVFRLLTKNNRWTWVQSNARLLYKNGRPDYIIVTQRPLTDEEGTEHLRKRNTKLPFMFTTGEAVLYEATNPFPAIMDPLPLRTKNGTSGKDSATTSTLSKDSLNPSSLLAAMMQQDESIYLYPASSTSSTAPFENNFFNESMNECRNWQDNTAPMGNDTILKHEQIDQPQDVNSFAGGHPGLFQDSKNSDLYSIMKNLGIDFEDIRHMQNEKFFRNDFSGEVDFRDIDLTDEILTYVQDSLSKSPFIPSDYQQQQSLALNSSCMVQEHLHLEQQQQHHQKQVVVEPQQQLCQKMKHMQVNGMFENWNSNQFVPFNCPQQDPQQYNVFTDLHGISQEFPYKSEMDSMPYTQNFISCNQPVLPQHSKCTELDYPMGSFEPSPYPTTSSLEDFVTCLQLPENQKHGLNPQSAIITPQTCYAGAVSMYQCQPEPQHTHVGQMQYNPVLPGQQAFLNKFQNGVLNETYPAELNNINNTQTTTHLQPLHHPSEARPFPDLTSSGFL
Structure (SMILES),IC50 (AhR),cyp1A1 pIC50 (CYP1A1),IC50 (CYP1A1)
"CN(C)S(=O)(=O)N1CCc2c(nc(-c3cncc(F)c3)nc2NCCc2c[nH]c3ccccc23)C1 [Example 12, 4-((2-(1H-indol-3-yl)ethyl)amino)-2-(5-fluoropyridin-3-yl)-N,N-dimethyl-5,8-dihydropyrido[3,4-d]pyrimidine-7(6H)-sulfonamide]",1 nM,6.10,
"Fc1cncc(-c2nc3c(c(NCCc4c[nH]c5ccccc45)n2)CCNC3)c1 [Example 8, N-(2-(1H-indol-3-yl)ethyl)-2-(5-fluoropyridin-3-yl)-5,6,7,8-tetrahydropyrido[3,4-d]pyrimidin-4-amine]",15.8 nM,7.00,
"Clc1cncc(-c2nc3c(c(NCCc4c[nH]c5ccccc45)n2)CCNC3)c1 [Example 22, N-(2-(1H-indol-3-yl)ethyl)-2-(5-chloropyridin-3-yl)-5,6,7,8-tetrahydropyrido[3,4-d]pyrimidin-4-amine]",10 nM,,316 nM
"N#CCN1CCc2c(nc(-c3cncc(F)c3)nc2NCCc2c[nH]c3ccccc23)C1 [Example 4, 2-(4-((2-(1H-indol-3-yl)ethyl)amino)-2-(5-fluoropyridin-3-yl)-5,8-dihydropyrido[3,4-d]pyrimidin-7(6H)-yl)acetonitrile]",6.31 nM,,794 nM

# More lines, now with the values ahead:
IC50 (AhR),cyp1A1 pIC50 (CYP1A1),IC50 (CYP1A1),Structure (SMILES)
10 nM,6.70,,"N#Cc1cncc(-c2nc3c(c(NCCc4c[nH]c5ccccc45)n2)CCNC3)c1 [Example 23, 5-(4-((2-(1H-indol-3-yl)ethyl)amino)-5,6,7,8-tetrahydropyrido[3,4-d]pyrimidin-2-yl)nicotinonitrile]"
4.47 nM,7.2,,"Clc1cncc(-c2nc3c(c(NCCc4c[nH]c5ccccc45)n2)CNCC3)c1 [Example 27, N-(2-(1H-indol-3-yl)ethyl)-2-(5-chloropyridin-3-yl)-5,6,7,8-tetrahydropyrido[4,3-d]pyrimidin-4-amine]"
6.03 nM,7.1,,"Fc1cncc(-c2nc3c(c(NCCc4c[nH]c5ccc(F)cc45)n2)CNCC3)c1 [Example 32, N-(2-(5-fluoro-1H-indol-3-yl)ethyl)-2-(5-fluoropyridin-3-yl)-5,6,7,8-tetrahydropyrido[4,3-d]pyrimidin-4-amine]"
